In PubChem BioAssay AID1963979 (Molecular Pharmacology Branch, DTP, NCI, 2024) one finds IC50 and viability, T/C data, which are given here for 2 compounds.

The assay has as its system 361931-004-R-J1-PDC multicell spheroid viability. Description: Anticancer human tumor 361931-004-R-J1-PDC patient-derived colon adenocarcinoma cell line growth inhibition [PI3K]. Conditions: for viability, T/C: stronger effect = lower value. Put shortly:
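Agents were dosed from a top concentration near clinical Cmax (otherwise 10 microM) in half-log decrements, alone or combined with PI3K inhibitors. The spheroids contain tumor cells plus endothelial (HUVEC) and MSC stroma; viability is measured.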

SMILES strings stand for the structures.
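Note: spheroids exposed to agents for seven days before readout.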

On to `Cn1nccc1Nc1nccc(-c2ccn(C(CO)c3ccc(Cl)c(F)c3)c(=O)c2)n1` (stereo not given) + CC(Nc1ccc2c(c1)OCCn1cc(N3C(=O)OCC3C(F)F)nc1-2)C(N)=O, for which the IC50 (in general, the point on the concentration scale where inhibition reaches its midpoint) by setting is: (curve of first compound, second compound 0.00316 µM) 8.69 µM; (curve of first compound, second compound 0.01 µM) 7.8 µM; (curve of first compound, second compound 0.0316 µM) 6.08 µM; (curve of first compound, second compound 0.1 µM) 3.1 µM; (curve of first compound, second compound 0.316 µM) 2.31 µM; (curve of first compound, second compound 1 µM) 1.09 µM. Moreover, the viability, T/C (in general, the ratio of treated to control) reads like this: (second compound 0.00316 µM, first compound 0.0316 µM) 103%; (second compound 0.00316 µM, first compound 0.1 µM) 96.7%; (second compound 0.00316 µM, first compound 0.316 µM) 92.7%; (second compound 0.00316 µM, first compound 1 µM) 88.8%; (second compound 0.00316 µM, first compound 3.16 µM) 76.6%; (second compound 0.00316 µM, first compound 10 µM) 45.6%. Moreover, the viability, T/C reads like this: (second compound 0.01 µM, first compound 0.0316 µM) 120%; (second compound 0.01 µM, first compound 0.1 µM) 105%; (second compound 0.01 µM, first compound 0.316 µM) 93.9%; (second compound 0.01 µM, first compound 1 µM) 84.1%; (second compound 0.01 µM, first compound 3.16 µM) 76.5%; (second compound 0.01 µM, first compound 10 µM) 41.4%. Also, the viability, T/C was 106% (second compound 0.0316 µM, first compound 0.0316 µM); 93% (second compound 0.0316 µM, first compound 0.1 µM); 85.8% (second compound 0.0316 µM, first compound 0.316 µM); 82.5% (second compound 0.0316 µM, first compound 1 µM); 70.6% (second compound 0.0316 µM, first compound 3.16 µM); 36% (second compound 0.0316 µM, first compound 10 µM). Further, the viability, T/C (second compound 0.1 µM, first compound 0.0316 µM) is 97.6%; the viability, T/C (second compound 0.1 µM, first compound 0.1 µM) is 97.8%; the viability, T/C (second compound 0.1 µM, first compound 0.316 µM) is 89.3%; the viability, T/C (second compound 0.1 µM, first compound 1 µM) was 71.9%; the viability, T/C (second compound 0.1 µM, first compound 3.16 µM) was 50.5%; the viability, T/C (second compound 0.1 µM, first compound 10 µM) is 25.5%. The viability, T/C (second compound 0.316 µM, first compound 0.0316 µM) is 95.3%; the viability, T/C (second compound 0.316 µM, first compound 0.1 µM) is 86.5%; the viability, T/C (second compound 0.316 µM, first compound 0.316 µM) was 77.8%; the viability, T/C (second compound 0.316 µM, first compound 1 µM) is 72.9%; the viability, T/C (second compound 0.316 µM, first compound 3.16 µM) was 40.7%; the viability, T/C (second compound 0.316 µM, first compound 10 µM) was 13.2%. The viability, T/C is 69.8% (second compound 1 µM, first compound 0.0316 µM); 83.3% (second compound 1 µM, first compound 0.1 µM); 70% (second compound 1 µM, first compound 0.316 µM); 52.1% (second compound 1 µM, first compound 1 µM); 22.8% (second compound 1 µM, first compound 3.16 µM); 9.78% (second compound 1 µM, first compound 10 µM).
On to `CC1(C)CCC(Nc2ncc(C(F)(F)F)c(-c3c[nH]c4c(P(C)(C)=O)c(C#N)ccc34)n2)CN1` (stereo not given), for which the viability, T/C reads like this: (compound 0.1 µM) 94.6% [middle of 4 runs]; (compound 10 µM) 12.9% [middle of 4 runs]. For the same compound, for the setting “curve of compound”, the half-maximal inhibitory concentration (IC50) is 5.63 µM [middle of 4 runs].
